Measurements reported in US6989371B1, “Bombesin analogs for treatment of cancer” (Dabur Research Foundation, priority 1996, dated 2006).
Non-standard residues stand in square brackets, D forms with d. Residues, ends and D or L forms follow the SMILES beside them. *: point of attachment. Octanoyl = CCCCCCCC(=O)*; Aib = CC(C)(N)C(=O)O; Butyryl = CCCC(=O)*

How the values were obtained:
Test in all cases: MTT cytotoxicity assay, 48 hours (Example 14)
[1] = tested on: HBL 100 (Breast); assay type: cell-based, human
Description: (§1) The cytotoxic effect of peptide sequences SEQ ID NO: 9, SEQ ID NO: 10, SEQ ID NO: 11 and SEQ ID NO: 12, were studied by MTT assay which is based on the principle of uptake of MTT[3-[4,5-dimethylthiazol-2-yl]-2,5-diphenyl tetrazolium bromide], a tetrazolium salt by the metabolically active cells where it is metabolized by active mitochondria into a blue colored formazan product which can be read spectrophotometrically. Tumor cells KB (oral squamous). HuTu80 (Stomach), PTC and SW620 (colon), U87MG (Glioblastoma), HBL 100. (Breast), HeP2 (laryngeal) and L132 (Lung) were incubated with the peptide analogs for 48 hours at 37° C. in a 96-well culture plate, followed by the addition of 100 μl MTT and further incubation of 1 hour. The formazon crystals formed inside the cells were dissolved with a detergent comprising 10% Sodium dodecyl sulfate and 0.01 N HCl and optical density read on a multiscan ELISA reader. The optical density was directly proportional to the number of proliferating and metabolically active cells.

[2] = tested on: HuTu80 (Stomach); assay type: cell-based, human
Description: as §1

[3] = tested on: KB (oral squamous); assay type: cell-based, human
Description: as §1

[4] = tested on: PTC (colon); assay type: cell-based, human
Description: as §1

[5] = tested on: SW620 (colon); assay type: cell-based, human
Description: as §1

[6] = tested on: HeP2 (laryngeal); assay type: cell-based
Description: as §1

[7] = tested on: L132 (Lung); assay type: cell-based
Description: as §1

[8] = tested on: U87MG (Glioblastoma); assay type: cell-based
Description: as §1

Compound `CCCC(=O)N[C@H](Cc1ccccc1)C(=O)N[C@@H](CCC(N)=O)C(=O)N[C@@H](Cc1c[nH]c2ccccc12)C(=O)N[C@@H](C)C(=O)N[C@H](C(=O)NC(C)(C)C(=O)N[C@@H](Cc1c[nH]cn1)C(=O)N[C@@H](CC(C)C)C(N)=O)C(C)C` [SEQ ID: 11, Butanoyl-D-Phe-Gln-Trp-Ala-Val-Aib-His-Leu-NH2] (Butyryl-[dF]QWAV[Aib]HL-NH2) has a Percentage cytotoxicity ([1]; HBL100, 10 pM) of 18.2 ± 1.1%, a Percentage cytotoxicity ([1]; HBL100, 100 pM) of 15.4 ± 4.1% and a Percentage cytotoxicity ([1]; HBL100, 1 nM) of 24.3 ± 1.6%. It also gave a Percentage cytotoxicity ([1]; HBL100, 10 nM) of 29.9 ± 0.3%, a Percentage cytotoxicity ([1]; HBL100, 100 nM) of 22.7 ± 0.5% and a Percentage cytotoxicity ([1]; HBL100, 1 μM) of 24.5 ± 0.8%. The Percentage cytotoxicity ([2]; HuTu80, 10 pM) was 17.6 ± 1.6%, the Percentage cytotoxicity ([2]; HuTu80, 100 pM) was 22.6 ± 3.9% and the Percentage cytotoxicity ([2]; HuTu80, 1 nM) was 30.5 ± 4.1%. It also gave a Percentage cytotoxicity ([2]; HuTu80, 10 nM) of 27.3 ± 2.7%, a Percentage cytotoxicity ([2]; HuTu80, 100 nM) of 20.0 ± 3.1% and a Percentage cytotoxicity ([2]; HuTu80, 1 μM) of 14.2 ± 0.1%. The Percentage cytotoxicity ([3]; 10 pM) was 21.6 ± 3.7%, the Percentage cytotoxicity ([3]; 100 pM) was 26.7 ± 5.1% and the Percentage cytotoxicity ([3]; 1 nM) was 33.1 ± 2.1%. For the same compound, the Percentage cytotoxicity ([3]; 10 nM) was 31.9 ± 3.1%, the Percentage cytotoxicity ([3]; 100 nM) was 31.9 ± 2.1% and the Percentage cytotoxicity ([3]; 1 μM) was 24.2 ± 1.2%. The Percentage cytotoxicity ([4]; 10 pM) was 19.7 ± 0.6%, the Percentage cytotoxicity ([4]; 100 pM) was 28.3 ± 0.8% and the Percentage cytotoxicity ([4]; 1 nM) was 28.5 ± 2.8%. It also gave a Percentage cytotoxicity ([4]; 10 nM) of 25.7 ± 4.1%, a Percentage cytotoxicity ([4]; 100 nM) of 25.8 ± 2.5% and a Percentage cytotoxicity ([4]; 1 μM) of 18.6 ± 1.5%. For the same compound, the Percentage cytotoxicity ([5]; SW620, 10 pM) was 20.4 ± 0.3%, the Percentage cytotoxicity ([5]; SW620, 100 pM) was 25.9 ± 3.8% and the Percentage cytotoxicity ([5]; SW620, 1 nM) was 35.1 ± 2.2%. For the same compound, the Percentage cytotoxicity ([5]; SW620, 10 nM) was 31.5 ± 2.6%, the Percentage cytotoxicity ([5]; SW620, 100 nM) was 21.0 ± 1.5% and the Percentage cytotoxicity ([5]; SW620, 1 μM) was 23.7 ± 1.4%. For the same compound, the Percentage cytotoxicity ([6]; HeP2, 10 pM) was 15.1 ± 0.3%, the Percentage cytotoxicity ([6]; HeP2, 100 pM) was 20.1 ± 0.0% and the Percentage cytotoxicity ([6]; HeP2, 1 nM) was 37.1 ± 3.3%. It also gave a Percentage cytotoxicity ([6]; HeP2, 10 nM) of 34.6 ± 2.2%, a Percentage cytotoxicity ([6]; HeP2, 100 nM) of 23.9 ± 1.1% and a Percentage cytotoxicity ([6]; HeP2, 1 μM) of 21.9 ± 2.1%. It also gave a Percentage cytotoxicity ([7]; L132, 10 pM) of 0.5 ± 0.0%, a Percentage cytotoxicity ([7]; L132, 100 pM) of 18.3 ± 0.9% and a Percentage cytotoxicity ([7]; L132, 1 nM) of 29.4 ± 0.4%. For the same compound, the Percentage cytotoxicity ([7]; L132, 10 nM) was 30.4 ± 0.4%, the Percentage cytotoxicity ([7]; L132, 100 nM) was 20.4 ± 1.5% and the Percentage cytotoxicity ([7]; L132, 1 μM) was 1.4 ± 1.1%. For the same compound, the Percentage cytotoxicity ([8]; 10 pM) was 21.9 ± 2.1%, the Percentage cytotoxicity ([8]; 100 pM) was 26.5 ± 2.6% and the Percentage cytotoxicity ([8]; 1 nM) was 24.2 ± 1.7%. For the same compound, the Percentage cytotoxicity ([8]; 10 nM) was 20.0 ± 0.0%, the Percentage cytotoxicity ([8]; 100 nM) was 15.5 ± 0.6% and the Percentage cytotoxicity ([8]; 1 μM) was 1.0 ± 0.1%.

Work on `CCCCCCCC(=O)N[C@H](Cc1ccccc1)C(=O)N[C@@H](CCC(N)=O)C(=O)N[C@@H](Cc1c[nH]c2ccccc12)C(=O)N[C@@H](C)C(=O)N[C@H](C(=O)NC(C)(C)C(=O)N[C@@H](Cc1c[nH]cn1)C(=O)N[C@@H](CC(C)C)C(N)=O)C(C)C` [SEQ ID: 12, Octanoyl-D-Phe-Gln-Trp-Ala-Val-Aib-His-Leu-NH2] (Octanoyl-[dF]QWAV[Aib]HL-NH2) yielded a Percentage cytotoxicity ([1]; HBL100, 10 pM) of 29.0 ± 3.8%, a Percentage cytotoxicity ([1]; HBL100, 100 pM) of 34.7 ± 2.8% and a Percentage cytotoxicity ([1]; HBL100, 1 nM) of 29.6 ± 0.4%. The Percentage cytotoxicity ([1]; HBL100, 10 nM) was 27.7 ± 1.5%, the Percentage cytotoxicity ([1]; HBL100, 100 nM) was 23.6 ± 2.7% and the Percentage cytotoxicity ([1]; HBL100, 1 μM) was 11.8 ± 1.1%. It also gave a Percentage cytotoxicity ([2]; HuTu80, 10 pM) of 8.3 ± 1.1%, a Percentage cytotoxicity ([2]; HuTu80, 100 pM) of 13.0 ± 0.7% and a Percentage cytotoxicity ([2]; HuTu80, 1 nM) of 33.1 ± 4.8%. It also gave a Percentage cytotoxicity ([2]; HuTu80, 10 nM) of 23.4 ± 0.5%, a Percentage cytotoxicity ([2]; HuTu80, 100 nM) of 21.8 ± 2.1% and a Percentage cytotoxicity ([2]; HuTu80, 1 μM) of 20.0 ± 3.9%. For the same compound, the Percentage cytotoxicity ([3]; 10 pM) was 19.3 ± 2.9%, the Percentage cytotoxicity ([3]; 100 pM) was 19.4 ± 2.9% and the Percentage cytotoxicity ([3]; 1 nM) was 26.6 ± 4.9%. For the same compound, the Percentage cytotoxicity ([3]; 10 nM) was 18.6 ± 2.1%, the Percentage cytotoxicity ([3]; 100 nM) was 11.1 ± 3.1% and the Percentage cytotoxicity ([3]; 1 μM) was 12.4 ± 1.2%. It also gave a Percentage cytotoxicity ([4]; 10 pM) of 19.5 ± 0.8%, a Percentage cytotoxicity ([4]; 100 pM) of 18.6 ± 2.4% and a Percentage cytotoxicity ([4]; 1 nM) of 30.1 ± 4.1%. For the same compound, the Percentage cytotoxicity ([4]; 10 nM) was 20.7 ± 3.8%, the Percentage cytotoxicity ([4]; 100 nM) was 16.1 ± 2.5% and the Percentage cytotoxicity ([4]; 1 μM) was 14.4 ± 2.7%. For the same compound, the Percentage cytotoxicity ([5]; SW620, 10 pM) was 34.8 ± 0.4%, the Percentage cytotoxicity ([5]; SW620, 100 pM) was 38.4 ± 2.8% and the Percentage cytotoxicity ([5]; SW620, 1 nM) was 32.2 ± 2.6%. For the same compound, the Percentage cytotoxicity ([5]; SW620, 10 nM) was 36.1 ± 1.9%, the Percentage cytotoxicity ([5]; SW620, 100 nM) was 25.3 ± 0.6% and the Percentage cytotoxicity ([5]; SW620, 1 μM) was 22.6 ± 1.1%. The Percentage cytotoxicity ([6]; HeP2, 10 pM) was 10.0 ± 0.0%, the Percentage cytotoxicity ([6]; HeP2, 100 pM) was 24.4 ± 0.1% and the Percentage cytotoxicity ([6]; HeP2, 1 nM) was 28.9 ± 0.5%. It also gave a Percentage cytotoxicity ([6]; HeP2, 10 nM) of 29.2 ± 1.1%, a Percentage cytotoxicity ([6]; HeP2, 100 nM) of 25.6 ± 0.4% and a Percentage cytotoxicity ([6]; HeP2, 1 μM) of 28.7 ± 0.8%. For the same compound, the Percentage cytotoxicity ([7]; L132, 10 pM) was 0.0 ± 0.0%, the Percentage cytotoxicity ([7]; L132, 100 pM) was 23.1 ± 0.7% and the Percentage cytotoxicity ([7]; L132, 1 nM) was 26.7 ± 0.4%. For the same compound, the Percentage cytotoxicity ([7]; L132, 10 nM) was 26.4 ± 0.3%, the Percentage cytotoxicity ([7]; L132, 100 nM) was 22.0 ± 0.1% and the Percentage cytotoxicity ([7]; L132, 1 μM) was 22.2 ± 0.2%. For the same compound, the Percentage cytotoxicity ([8]; 10 pM) was 13.1 ± 2.2%, the Percentage cytotoxicity ([8]; 100 pM) was 22.1 ± 3.8% and the Percentage cytotoxicity ([8]; 1 nM) was 28.3 ± 1.9%. The Percentage cytotoxicity ([8]; 10 nM) was 27.5 ± 2.9%, the Percentage cytotoxicity ([8]; 100 nM) was 13.1 ± 2.3% and the Percentage cytotoxicity ([8]; 1 μM) was 15.4 ± 3.1%.
